Measured values published in ChEMBL document CHEMBL1201862, “PubChem BioAssay data set” (2004).
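A five-concentration, 48-hour dose response in 96-well plates underlies each endpoint, interpolated linearly between surrounding concentrations. The concentration for 50% growth inhibition is given as GI50.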 Activity calls are given as the source filed them. No stated cut-off is given here; in the data, active = GI50 up to about 1.1 µM and inactive = higher.

Experiments:
Experiment in all cases: growth of human tumour cells (NCI), 48 h
[1] = tested on: Hs-578T
[2] = tested on: DU-145
[3] = tested on: HCC 2998
[4] = tested on: EKVX
[5] = tested on: OVCAR-3
[6] = tested on: HCT-116
[7] = tested on: SF-295
[8] = tested on: RXF 393
[9] = tested on: SK-MEL-2
[10] = tested on: NCI-H226
[11] = tested on: CAKI-1
[12] = tested on: NCI-H522
[13] = tested on: SNB-75
[14] = tested on: UO-31
[15] = tested on: OVCAR-5
[16] = tested on: SN12C
[17] = tested on: U-251
[18] = tested on: MDA-MB-435
[19] = tested on: Malme-3M

Measured: GI50

C/C=C/C=C\C1OC(O)([C@H](CC)C(=O)NC/C=C/C=C(\C)[C@H](OC)C(C)C2OC(\C=C/C=C/C=C(\C)C(=O)c3c(O)ccn(C)c3=O)[C@H](O)[C@@H]2O)C(O)C(O)C1(C)C (some centres undefined)
inactive: [1] > 100 µM | [2] > 100 µM | [3] > 100 µM | [4] > 100 µM | [5] > 100 µM | [6] > 100 µM | [7] > 100 µM | [8] > 100 µM | [9] > 100 µM | [10] > 100 µM | [11] > 100 µM | [12] > 100 µM | [13] > 100 µM | [14] > 100 µM | [15] > 100 µM | [16] 75.3 µM | [17] > 100 µM | [18] > 100 µM

CCc1ccc(CCN2CCCCC2)nc1
inactive: [1] 56.9 µM | [2] > 100 µM | [3] > 100 µM | [4] > 100 µM | [5] 92.3 µM | [6] > 100 µM | [7] > 100 µM | [8] > 100 µM | [9] > 100 µM | [10] > 100 µM | [11] > 100 µM | [12] 52.1 µM | [14] > 100 µM | [15] > 100 µM | [19] > 100 µM | [16] > 100 µM | [17] > 100 µM | [18] > 100 µM

COc1cc(C2C3=C(NC(=O)C2C#N)c2ccc4ccccc4c2OCC3)cc(OC)c1OC (centres undefined)
inactive: [1] 20.9 µM | [2] 34.4 µM | [3] 25 µM | [4] 89.7 µM | [5] 45 µM | [6] 15.7 µM | [7] 27.6 µM | [8] 14.4 µM | [9] 22.1 µM | [11] 20.1 µM | [12] 28.9 µM | [13] 16.2 µM | [14] 15.1 µM | [15] 17.6 µM | [19] 17.8 µM | [16] 18.1 µM | [17] 16.7 µM | [18] 41.7 µM

O=C1NC(=O)C(C(c2ccc([N+](=O)[O-])cc2)C2C(=O)NC(=O)NC2=O)C(=O)N1
inactive: [1] > 100 µM | [2] > 100 µM | [5] > 100 µM | [6] > 100 µM | [7] > 100 µM | [8] > 100 µM | [9] > 100 µM | [10] > 100 µM | [11] > 100 µM | [12] > 100 µM | [14] > 100 µM | [15] > 100 µM | [19] 55.8 µM | [16] > 100 µM | [17] > 100 µM | [18] > 100 µM

O=CN1CCN(C(=O)c2ccc(Cl)c(Cl)c2)C1=S
inactive: [1] 39.5 µM | [2] 15.7 µM | [3] 18.5 µM | [4] 17.5 µM | [5] 15 µM | [6] 16.3 µM | [7] 17.9 µM | [8] 17.5 µM | [9] 15.3 µM | [10] 20.7 µM | [11] 14.9 µM | [12] 4.93 µM | [13] 17.5 µM | [15] 16.9 µM | [19] 20.5 µM | [16] 13.6 µM | [17] 12.5 µM | [18] 16.6 µM

CCSC1=N/C(=C\c2ccco2)C(NN)=N1
inactive: [1] > 50 µM | [2] > 50 µM | [4] > 50 µM | [5] > 50 µM | [6] > 50 µM | [7] > 50 µM | [8] > 50 µM | [9] > 50 µM | [10] > 50 µM | [11] > 50 µM | [12] > 50 µM | [13] > 50 µM | [14] > 50 µM | [15] > 50 µM | [19] > 50 µM | [16] > 50 µM | [17] > 50 µM | [18] > 50 µM

CC1=C(C)C(=O)C(C2=CC(=O)C=CC2=O)=C(C2=CC(=O)C=CC2=O)C1=O
inactive: [1] 45.4 µM | [2] > 100 µM | [3] > 100 µM | [4] > 54.1 µM | [6] 31.8 µM | [7] > 96.2 µM | [8] 41.9 µM | [9] > 100 µM | [10] > 100 µM | [11] 25.2 µM | [12] 21.2 µM | [13] > 100 µM | [14] 41.7 µM | [15] > 58.9 µM | [19] 66.1 µM | [16] 31 µM | [17] 32.7 µM | [18] 27.9 µM

O=c1cccc2n1CC1CNC[C@H]2C1 [CYTISINICLINE]
inactive: [1] > 100 µM | [2] > 100 µM | [3] > 100 µM | [4] > 100 µM | [5] > 100 µM | [6] > 100 µM | [7] > 100 µM | [8] > 100 µM | [9] > 100 µM | [11] > 100 µM | [12] > 100 µM | [13] > 100 µM | [14] > 100 µM | [15] > 100 µM | [19] > 100 µM | [16] > 100 µM | [17] > 100 µM | [18] > 100 µM

CCOP(=O)(OCC)C(F)(F)c1ccc(CC(NC(=O)OC(C)(C)C)C(=O)O)cc1 (centres undefined)
inactive: [1] > 10 µM | [2] > 10 µM | [3] > 10 µM | [4] > 10 µM | [5] > 10 µM | [6] > 10 µM | [7] > 10 µM | [10] > 10 µM | [11] > 10 µM | [13] > 10 µM | [14] > 10 µM | [15] > 10 µM | [19] > 10 µM | [16] > 10 µM | [17] > 10 µM | [18] > 10 µM

O=[N+]([O-])c1cccc2nnccc12
inactive: [1] 51.5 µM | [2] 38.7 µM | [4] 36.5 µM | [6] 12.1 µM | [7] 42.7 µM | [8] 63.5 µM | [9] 24.7 µM | [10] 16 µM | [11] 34.9 µM | [12] 3.71 µM | [13] 48.3 µM | [14] 28.6 µM | [15] 63.5 µM | [19] 11.9 µM | [16] 26.1 µM | [17] 41.6 µM | [18] 15.7 µM

CC(C)(C)OC(=O)NCCCCC(N)NC(=O)c1ccccc1 (centres undefined)
inactive: [1] > 100 µM | [2] > 100 µM | [3] > 100 µM | [4] > 100 µM | [5] > 100 µM | [6] > 100 µM | [7] > 100 µM | [8] > 100 µM | [9] > 100 µM | [10] > 100 µM | [11] > 100 µM | [12] > 100 µM | [13] > 100 µM | [14] > 100 µM | [15] > 100 µM | [19] > 100 µM | [16] > 100 µM | [17] > 100 µM | [18] > 100 µM
